In ChEMBL document CHEMBL1147565, “Imidazo[1,2-a]pyridines. Part 2: SAR and optimisation of a potent and selective class of cyclin-dependent kinase inhibitors” (Bioorg Med Chem Lett, 2004):
Blank lines part the entries; values can stand above or below the compound they belong to.

What was measured:
[1] = target: Cyclin-dependent kinase 2 (Homo sapiens, UniProt P24941); assay: Inhibitory concentration against cyclin-dependent kinase 2
MCF7 [2] = assay: Inhibitory activity against BrdU incorporation to MCF-7 cell line following 3 day exposure to compound; format: functional, cell-based; details: Homo sapiens, MCF7, 72 h
MCF7 [3] = assay: Inhibition of cyclin-dependent kinase phosphorylation of S249-T252 of Rb protein in MCF-7 cells; format: functional, cell-based; details: Homo sapiens
[4] = target: Cyclin-dependent kinase 4 (Homo sapiens, UniProt P11802); assay: Inhibition of Cyclin-dependent kinase 4
Cyclin-dependent kinase 4, sequence (P11802 whole entry): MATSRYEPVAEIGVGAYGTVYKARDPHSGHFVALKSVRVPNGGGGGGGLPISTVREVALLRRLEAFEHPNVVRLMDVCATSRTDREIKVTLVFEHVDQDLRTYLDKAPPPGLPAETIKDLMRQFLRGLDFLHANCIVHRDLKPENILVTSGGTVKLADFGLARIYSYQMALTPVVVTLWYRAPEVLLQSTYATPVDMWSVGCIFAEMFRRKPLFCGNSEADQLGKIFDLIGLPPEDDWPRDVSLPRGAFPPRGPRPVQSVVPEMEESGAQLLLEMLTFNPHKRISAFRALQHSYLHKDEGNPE

[5] = target: Cyclin-dependent kinase 1 (Homo sapiens, UniProt P06493); assay: Inhibition of Cyclin-dependent kinase 1
Cyclin-dependent kinase 1, sequence (P06493 whole entry): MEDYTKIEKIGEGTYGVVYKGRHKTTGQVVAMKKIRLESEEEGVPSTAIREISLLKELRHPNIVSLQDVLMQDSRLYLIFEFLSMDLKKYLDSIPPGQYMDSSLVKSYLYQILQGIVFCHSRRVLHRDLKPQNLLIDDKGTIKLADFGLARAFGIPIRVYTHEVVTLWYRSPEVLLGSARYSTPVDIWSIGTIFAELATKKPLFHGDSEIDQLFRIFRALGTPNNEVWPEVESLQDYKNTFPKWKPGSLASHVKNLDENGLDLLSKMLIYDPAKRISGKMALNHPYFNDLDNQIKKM

IC50 [1]: 8800 nM
Compound: Cc1nc2ccccn2c1-c1ccnc(Nc2ccccc2Cl)n1

IC50 [1]: > 10000 nM
Compound: COCCNS(=O)(=O)c1ccc(Nc2ncc(Sc3ccccc3)c(-c3cnc4ccccn34)n2)cc1

IC50 [1]: 620 nM
Compound: Cc1nc2ccccn2c1-c1ccnc(Nc2ccc(Cl)cc2)n1

IC50 [1]: 5 nM
Compound: Clc1cccc(Nc2nccc(-c3cnc4ccccn34)n2)c1

IC50 [1]: < 3 nM
Compound: COCCNS(=O)(=O)c1ccc(Nc2ncc(Cl)c(-c3cnc4ccccn34)n2)cc1

IC50 [1]: < 3 nM
Compound: COCCNS(=O)(=O)c1ccc(Nc2ncc(Br)c(-c3cnc4ccccn34)n2)cc1

IC50 [1]: 38 nM
Compound: Cc1nc2ccccn2c1-c1ccnc(Nc2ccc(S(N)(=O)=O)cc2)n1

The next lines start with the compound.

Compound: Cc1nc2ccccn2c1-c1ccnc(Nc2cccc(Cl)c2)n1
IC50 [1]: 150 nM

Compound: CCSc1ccc2ncc(-c3ccnc(Nc4ccc(S(=O)(=O)NCCOC)cc4)n3)n2c1
IC50 [1]: < 3 nM

Compound: c1ccc(Nc2nccc(-c3cnc4ccccn34)n2)cc1
IC50 [1]: < 3 nM

Compound: CN(C)CCCNS(=O)(=O)c1ccc(Nc2nccc(-c3cnc4ccccn34)n2)cc1
IC50 [1]: < 3 nM
IC50 (MCF7 [2]): 70 nM

Compound: CN(C)CCNS(=O)(=O)c1ccc(Nc2nccc(-c3cnc4ccccn34)n2)cc1
IC50 (MCF7 [3]): 50 nM
IC50 [4]: 260 nM
IC50 [5]: 15 nM
IC50 [1]: 5 nM
IC50 (MCF7 [2]): 70 nM

Compound: COCCCNS(=O)(=O)c1ccc(Nc2nccc(-c3cnc4ccccn34)n2)cc1
IC50 (MCF7 [3]): 400 nM
IC50 [4]: 3100 nM
IC50 [5]: 6 nM
IC50 [1]: 4 nM
IC50 (MCF7 [2]): 600 nM

Compound: Cc1nc2ccccn2c1-c1ccnc(Nc2ccccc2)n1
IC50 [1]: 210 nM

Compound: Clc1cccc(Nc2nccc(-n3cnc4ccccc43)n2)c1
IC50 [1]: 680 nM

Compound: COCCNS(=O)(=O)c1ccc(Nc2nccc(-c3cnc4ccc(Sc5ccccc5)cn34)n2)cc1
IC50 [1]: 16 nM

Compound: NS(=O)(=O)c1ccc(Nc2nccc(-c3cnc4ccccn34)n2)cc1
IC50 [1]: < 3 nM

Compound: COCCNS(=O)(=O)c1ccc(Nc2nccc(-c3cnc4ccccn34)n2)cc1
IC50 [1]: 12 nM
IC50 (MCF7 [2]): 390 nM

Compound: CN(C)CCCN(C)S(=O)(=O)c1ccc(Nc2nccc(-c3cnc4ccccn34)n2)cc1
IC50 [1]: 5 nM
IC50 (MCF7 [2]): 440 nM

Compound: COCCNS(=O)(=O)c1ccc(Nc2nccc(-c3cnc4ccc(C#N)cn34)n2)cc1
IC50 [1]: < 3 nM

Compound: COCCNS(=O)(=O)c1ccc(Nc2nccc(-c3cnc4ccc(Br)cn34)n2)cc1
IC50 [1]: < 3 nM

Compound: CNS(=O)(=O)c1ccc(Nc2nccc(-c3cnc4ccccn34)n2)cc1
IC50 [1]: < 3 nM
IC50 (MCF7 [2]): 260 nM
